For test [1], the target named is T1, human 5-HT4(b) receptor (Homo sapiens, UniProt Q13639). The test can be described thus: Radioligand binding assay with [3H]GR113808. Here is the method: (§1) The development of HEK293 cell lines stably expressing human 5-HT4(b) receptors was described and published previously (Bach et al. 2001). Briefly, HEK293 cells (ATCC) were grown in Dulbecco's modified Eagle's medium with 10% foetal calf serum and penicillin (100 U/ml) and streptomycin (100 μg/ml). Cells were transfected with plasmid DNA (pcDNA3.1(−) containing human 5-HT4(b) receptor cDNA) using SuperFect Transfection Reagent (QIAGEN) according to the manufacturers protocol. Serial dilutions of transfected cells were plated in 96 well plates containing G418 (geneticin; Amersham) at 0.4 mg/ml, and isolated single colonies of cells transformed to the neomycin-resistant phenotype were expanded and tested for expression of serotonin receptors by measuring serotonin-stimulated adenylyl cyclase activity (Themmen et al. 1993). Transformed cells were always grown in the presence of G418 (0.4 mg/ml). For binding and adenylyl cyclase analysis, stable cell lines were grown and maintained in UltraCULTURE™ general purpose serum-free medium (BioWhittaker, Walkersville, Md., USA), supplemented with L-glutamine (2 mM), penicillin (100 U/ml) and streptomycin (100 μg/ml).
T1 sequence (Q13639 whole entry): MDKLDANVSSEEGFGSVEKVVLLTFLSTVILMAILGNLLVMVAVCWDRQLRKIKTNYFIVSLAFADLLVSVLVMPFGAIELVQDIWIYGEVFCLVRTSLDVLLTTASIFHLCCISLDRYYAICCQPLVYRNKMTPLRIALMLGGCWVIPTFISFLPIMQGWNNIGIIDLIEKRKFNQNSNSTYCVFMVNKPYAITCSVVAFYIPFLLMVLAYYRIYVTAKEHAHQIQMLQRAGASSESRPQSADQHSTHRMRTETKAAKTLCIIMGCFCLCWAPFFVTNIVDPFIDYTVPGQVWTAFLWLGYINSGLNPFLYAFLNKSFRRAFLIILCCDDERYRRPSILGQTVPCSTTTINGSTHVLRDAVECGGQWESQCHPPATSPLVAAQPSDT
(§2) Membranes were prepared from stably transfected HEK293 cells cultured on 150-mm cell culture dishes and grown to 80% confluence in serum-free medium (UltraCULTURE™, BioWhittaker) with penicillin (10 U/ml) and 2 mM L-Glutamine (BioWhittaker). Cells were washed twice with 10 ml ice-cold HBSS, scraped with a rubber policeman in 10 ml ice-cold HBSS and collected by centrifugation at 800 g for 5 min at 4° C. The cell pellet was resuspended in 1 ml/dish ice-cold STE buffer (27% (w/v) sucrose, 50 mM Tris-HCl, pH 7.5 at 20° C., 5 mM EDTA) and homogenized with an Ultra-Turrax (IKA) homogenizer, using five 10 s bursts with 30 s cooling in ice-water between bursts. To remove nuclei, the homogenate was centrifuged at 300 g for 5 min at 4° C. and the supernatant was further centrifuged at 17000 g for 20 min at 4° C. and the supernatant removed. The crude membrane pellet was resuspended with ten strokes of tight fitting pestle B in a Dounce glass-glass homogenizer in 1 ml/dish ice-cold TE (50 mM Tris-HCl, pH 7.5 at RT, 5 mM EDTA). This procedure was repeated twice and the resuspended membranes were finally aliquotted and flash frozen in liquid nitrogen and stored at −70° C. until use.
Binding assays were performed on membranes of HEK293 cells stably expressing the human 5-HT4(b) receptor (refs.) in 96-well, round-bottom microtiter plates with total reaction volumes of 50-200 μl, containing the indicated concentration of [^3H]GR113808 with or without competing unlabelled ligand in a binding buffer containing 50 mM Tris-HCl (pH 7.5 at RT), 1 mM EDTA, 5 mM EGTA, 2 mM MgCl2, 1 mM ascorbate, 0.1% BSA and 100 μM GTP. The plates were incubated at 23 EC for 60 min and harvested onto UniFilter™-96 GF/C™ (Packard Instrument Co., Meriden, Conn., USA), presoaked in 0.3% polyethyleneimine (Sigma), using a Packard FilterMate Universal Harvester with 96-well format, and washed 4-6 times with approximately 0.25 ml/well of ice-cold buffer, containing 50 mM Tris-HCl (pH 7.0 at RT) and 2 mM MgCl2. The filters were dried and counted at approximately 40% efficiency in a Top-Count liquid scintillation counter (Packard), using 20 μl per filter well of Micro-Scint liquid scintillation cocktail (Packard).
(§3) Binding and adenylyl cyclase data were analyzed by non-linear regression using Microsoft Excel with the Solver add-in, using the below equations.
Competitive binding assays—The data were fit to the equation
where a is non-specific binding, b is total binding in the absence of competitor, c is IC50, and x is the concentration of competitor. Where relevant, relative binding data were obtained by recalculating the data using a=0 and b=100.
(§4) IC50 values from competitive binding assays were converted to Kb values by the method of Cheng and Prusoff (1973).

The target of test [2] is T1, human 5-HT4(b) receptor. The test can be described thus: Adenylyl cyclase assay (antagonist pKb, agonist/antagonist properties). Format: biochemical. The settings on record: membranes of HEK293 cells stably expressing human 5-HT4(b) receptor; for Kb: hyphen-separated values taken as single determinations. Here is the method:
as §1, §2
Adenylyl cyclase activity was measured in membranes of HEK293 cells stably expressing the human 5-HT4(b) receptor (refs.) by determining conversion of [α-^32P]ATP to [^32P]cAMP in membranes prepared in STE by homogenization of cells grown and washed as described above in a Dounce glass-glass homogenizer by 10 strokes with the tight-fitting pestle. Membranes were kept on ice prior to assay. Adenylyl cyclase activities were measured in 10-μl aliquots in a final volume of 50 μl in the presence of 0.1 mM [α-^32P]ATP (1-2×10^6 cpm/assay), 4 mM MgCl2, 20 μM GTP, 1 mM EDTA, 1 mM [^3H]cAMP (ca. 10,000 cpm/assay), […] 3-isobutyl-1-methyl xanthine (IBMX; Sigma), a nucleoside triphosphate regenerating system consisting of 20 mM creatine phosphate (Sigma), 0.2 mg/ml creatine phosphokinase (Sigma) and 40 U/ml myokinase (Sigma) and additives described in the text and figures. When forskolin (Calbiochem, La Jolla, Calif., USA) was used the concentration was 100 μM. Incubations were for 20 min at 32° C. Cyclic AMP formed was quantified by the double column chromatography system of Salomon et al. (1974) as modified by Bockaert et al. (1976).
as §3
Activation of adenylyl cyclase—The data were fit to the equation
where a is basal adenylyl cyclase activity, b is maximal adenylyl cyclase activity stimulated by the agonist, c is EC50, and x is the concentration of agonist.
as §4

A further test deals with T2, hERG ion channel (Homo sapiens, UniProt Q12809).
T2 construct: expressed in transfected cells; host or cells: HEK-293, stably transfected
T2 sequence (Q12809 whole entry): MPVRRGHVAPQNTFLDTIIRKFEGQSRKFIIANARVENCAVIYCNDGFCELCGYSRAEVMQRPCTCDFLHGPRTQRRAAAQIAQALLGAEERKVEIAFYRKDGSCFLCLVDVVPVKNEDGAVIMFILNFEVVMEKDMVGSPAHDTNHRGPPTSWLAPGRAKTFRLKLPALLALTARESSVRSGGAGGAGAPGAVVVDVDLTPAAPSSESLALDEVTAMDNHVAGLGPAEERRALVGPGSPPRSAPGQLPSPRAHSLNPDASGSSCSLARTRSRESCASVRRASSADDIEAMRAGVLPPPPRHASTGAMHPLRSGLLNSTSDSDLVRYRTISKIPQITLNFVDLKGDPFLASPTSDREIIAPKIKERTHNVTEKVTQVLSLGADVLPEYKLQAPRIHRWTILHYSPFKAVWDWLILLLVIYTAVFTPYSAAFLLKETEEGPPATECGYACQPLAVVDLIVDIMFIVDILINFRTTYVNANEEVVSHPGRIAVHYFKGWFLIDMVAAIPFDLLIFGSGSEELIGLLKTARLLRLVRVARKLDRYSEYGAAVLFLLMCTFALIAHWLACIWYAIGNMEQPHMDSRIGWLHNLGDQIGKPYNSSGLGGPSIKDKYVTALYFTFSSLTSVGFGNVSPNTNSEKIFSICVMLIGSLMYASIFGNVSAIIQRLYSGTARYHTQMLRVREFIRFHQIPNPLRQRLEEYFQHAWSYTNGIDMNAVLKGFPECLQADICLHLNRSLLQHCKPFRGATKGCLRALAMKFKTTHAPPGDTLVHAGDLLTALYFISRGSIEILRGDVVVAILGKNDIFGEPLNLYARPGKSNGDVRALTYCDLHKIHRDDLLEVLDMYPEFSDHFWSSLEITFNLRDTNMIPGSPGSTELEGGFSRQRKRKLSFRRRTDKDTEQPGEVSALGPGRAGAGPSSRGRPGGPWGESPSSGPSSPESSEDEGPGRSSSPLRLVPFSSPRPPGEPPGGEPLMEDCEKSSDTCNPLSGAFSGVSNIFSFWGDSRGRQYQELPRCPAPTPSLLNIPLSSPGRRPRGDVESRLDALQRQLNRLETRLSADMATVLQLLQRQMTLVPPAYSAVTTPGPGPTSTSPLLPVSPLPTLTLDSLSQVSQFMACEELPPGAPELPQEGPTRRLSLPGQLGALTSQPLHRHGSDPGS
Kind of test: hERG tail current, patch-clamp in HEK-293 cells stably transfected with hERG. The format is cell-based. Here is the method: The purpose of this study was to assess the effects of the above compounds on hERG (human ether-a-go-go related gene) tail current by examining the acute effect of the test compounds on the hERG ion channel in an appropriate in vitro test system. The human embryonic kidney cell (HEK-293), which has been stably transfected with hERG ion channel cDNA, is a preparation that is considered suitable for this purpose.
Four concentrations of each test compound were tested in a screening assay to determine the liability to block hERG channels. Using the patch-clamp technique, peak hERG tail current amplitude was measured prior to and following exposure to the compounds at the following nominal concentrations:
for approximately 7 to 32 minutes (n=3 cells for each concentration). In addition, peak hERG tail current amplitude was measured in a separate group of 3 cells, prior to and following exposure to vehicle (0.1% DMSO) for time-matched vehicle data correction. Terfenadine (at the submaximally effective concentration of 50 nM, n=3), a known inhibitor of the IKr current, was used as a positive control compound.
The test compound data were corrected for the mean effect of vehicle and rundown and the concentration-response data were plotted and fitted with a sigmoidal function, from which the IC50 values for each compound were calculated.

Setting [3] is: [3H]GR113808 competition, membranes of HEK293 cells stably expressing human 5-HT4(b) receptor, hyphen-separated values taken as single determinations, read-out: Binding affinity (pKd value) (converted).
Where [4] appears, read: read-out: Antagonist pKb value (converted).
The mark [5] stands for this setting: peak hERG tail current, HEK-293, corrected for vehicle and rundown, sigmoidal fit, read-out: hERG IC50.

Several values for one entry are separate records, joined by “and”; a condition that tells them apart may be missing. Equal entries are not always repeated. Where two headings read alike, the source gives them in different places.

For `COC(=O)c1ccccc1-c1ccc(CN2CCC(CNC(=O)c3cc(Cl)c(N)cc3OC)CC2)cc1` [Compound 17], on human 5-HT4(b) receptor [1] (setting [3]), the Kd was 3.72 nM and 5.01 nM.

For `CC(C)(C(=O)O)c1ccc(CN2CCC(COC(=O)c3c4n(c5ccccc35)CCCO4)CC2)cc1` [Compound 29], the Kb on human 5-HT4(b) receptor [2] (setting [4]) was 1.66 nM. For the same compound, the Kd on human 5-HT4(b) receptor [1] is 0.355 nM.

On human 5-HT4(b) receptor [2] (Antagonist pKb value), `CC(C(=O)O)c1ccc(CN2CCC(COC(=O)c3c4n(c5ccccc35)CCCO4)CC2)cc1` (stereo not shown) [Compound 27] showed a Kb of 1.62 nM. The Kd on human 5-HT4(b) receptor [1] is 0.513 nM. The compound also came in with a half-maximal inhibitory concentration (IC50) against hERG ion channel of 25000 nM.

`Cn1cc(C(=O)OCC2CCN(CCNS(C)(=O)=O)CC2)c2ccccc21` [GR113808, 1-methyl-1H-indole-3-carboxylic acid, [1-[2-[(methylsulfonyl)amino]ethyl]-4-piperidinyl]methyl ester, reference compound] gave a Kb at human 5-HT4(b) receptor [2] (Antagonist pKb value) of 0.0891 nM. The Agonist/Antagonist properties entry at human 5-HT4(b) receptor [2] is listed as “Antagonist”. In addition, the Kd at human 5-HT4(b) receptor [1] was 0.112 nM and 0.0389 nM.

Compound `O=C(OCC1CCN(Cc2ccc(-c3ccccc3-c3nn[nH]n3)cc2)CC1)c1c2n(c3ccccc13)CCCO2` [Compound 4] had a Kb at human 5-HT4(b) receptor [2] (Antagonist pKb value) of 0.00447 nM.

Regarding `COC(=O)c1ccccc1-c1ccc(CN2CCC(COC(=O)c3c4n(c5ccccc35)CCCO4)CC2)cc1` [Compound 7], the Kb on human 5-HT4(b) receptor [2] (Antagonist pKb value) was 0.0132 nM and 0.0479 nM. Moreover, the Kd on human 5-HT4(b) receptor [1] was 0.00251 nM. Also, at hERG ion channel, the half-inhibitory concentration (IC50) stood at 131 nM.

As to `O=C(O)c1ccccc1-c1ccc(CN2CCC(COC(=O)c3c4n(c5ccccc35)CCCO4)CC2)cc1` [Compound 8], at human 5-HT4(b) receptor [2] (Antagonist pKb value), the Kb was 0.0631 nM and 0.331 nM. For the same compound, on human 5-HT4(b) receptor [1], the Kd was 0.0363 nM and 0.0776 nM. Further, at hERG ion channel (setting [5]), the 50% inhibitory concentration (IC50) is 47500 nM.

Regarding `CCCCN1CCC(CNC(=O)c2c3n(c4ccccc24)CCCO3)CC1` [SB207266, reference compound], the Agonist/Antagonist properties result on human 5-HT4(b) receptor [2] was “Antagonist”. Also, the Kb at human 5-HT4(b) receptor [2] (setting [4]) was 0.0537 nM and 0.0372 nM and 0.269 nM. For the same compound, the Kd on human 5-HT4(b) receptor [1] (setting [3]) is 0.263 nM and 0.209 nM and 0.166 nM and 0.0355 nM and 0.0407 nM.

For the compound `COc1cc(N)c(Cl)cc1C(=O)NCC1CCN(Cc2ccc(-c3ccccc3C(=O)O)cc2)CC1` [Compound 18], the Kd at human 5-HT4(b) receptor [1] (setting [3]) was 174 nM and 126 nM.

On to `O=C(NCC1CCN(Cc2ccc(-c3ccccc3-c3nn[nH]n3)cc2)CC1)c1c2n(c3ccccc13)CCCO2` [Compound 2], for which, at human 5-HT4(b) receptor [2], the Agonist/Antagonist properties result is “Antagonist”. The Kd on human 5-HT4(b) receptor [1] is 3.89 nM and 4.17 nM and 4.37 nM. Besides, the 50% inhibitory concentration (IC50) on hERG ion channel (setting [5]) stood at 27500 nM.

The compound `O=C(OCC1CCN(C2C3CC4C(C3C(=O)O)C42)CC1)c1c2n(c3ccccc13)CCCO2` (stereo not shown) [Compound 23] gave a Kb on human 5-HT4(b) receptor [2] (Antagonist pKb value) of 3.63 nM. At human 5-HT4(b) receptor [2], the Agonist/Antagonist properties result is “Antagonist”. This compound also had a Kd at human 5-HT4(b) receptor [1] of 1.51 nM.

For `COc1cc(N)c(Cl)cc1C(=O)NCC1CCN(Cc2ccc(-c3ccccc3-c3nn[nH]n3)cc2)CC1` [Compound 20], on human 5-HT4(b) receptor [1] (setting [3]), the Kd is 18.6 nM and 27.5 nM.

`O=C(OCC1CCN(C2CCCC(C(=O)O)C2)CC1)c1c2n(c3ccccc13)CCCO2` (stereo not shown) [Compound 25]: the Agonist/Antagonist properties result at human 5-HT4(b) receptor [2] is on record as “Antagonist”. Besides, the Kb on human 5-HT4(b) receptor [2] (setting [4]) is 2.51 nM. On human 5-HT4(b) receptor [1], this compound showed a Kd of 1.2 nM.

`O=C(OCC1CCN(C2CCC(C(=O)O)C2)CC1)c1c2n(c3ccccc13)CCCO2` (stereo not shown) [Compound 24]: the Agonist/Antagonist properties result on human 5-HT4(b) receptor [2] is “Antagonist”. The Kb on human 5-HT4(b) receptor [2] (setting [4]) was 2.51 nM. The compound also had a Kd at human 5-HT4(b) receptor [1] of 1.15 nM. On hERG ion channel (setting [5]), the concentration for half-maximal inhibition (IC50) came out at 209000 nM.

What is called IC50 is the concentration needed to halve the response being measured.

The values are drawn from patent US20120094989A1, “5-HT RECEPTOR MODULATING COMPOUNDS” (priority 2009, published 2012).
